Columns and labels:
[1] = system: area CA1 of hippocampal slices; assay: DHPG induced mGluR-LTD, field EPSP recordings in acute hippocampal slices; design: species or system mice
Experimental: Acute hippocampal slices were prepared from P25-30 animals in ice-cold dissection buffer containing (in mM): NaCl 87, Sucrose 75, KCl 2.5, NaH2PO4 1.25, NaHCO3 25, CaCl2 0.5, MgSO4 7, Ascorbic acid 1.3, and D-glucose 10 (saturated with 95% O2/5% CO2). Immediately following slicing the CA3 region was removed. Slices were recovered in artificial cerebrospinal fluid (ACSF) containing (in mM): NaCl 124, KCl 5, NaH2PO4 1.23, NaHCO3 26, CaCl2 2, MgCl2 1 and D-glucose 10 (saturated with 95% O2/5% CO2) at 32.5° C. for about >3 hours prior to recording.
(§1) Field recordings were performed in a submersion chamber, perfused with ACSF (about 2-3 ml/min) at 30° C. Field EPSPs (fEPSPs) were recorded in CA1 stratum radiatum with extracellular electrodes filled with ACSF. Baseline responses were evoked by stimulation of the Schaffer collaterals at 0.033 Hz with a 2-contact cluster electrode (FHC) using about a 0.2 ms stimulus yielding about 40-60% of the maximal response. fEPSP recordings were filtered at about 0.1 Hz-1 kHz, digitized at 10 kHz, and analyzed using pClamp9 (Axon Instruments). The initial slope of the response was used to assess changes in synaptic strength. Data were normalized to the baseline response and are presented as group means±SEM. LTD was measured by comparing the average response about 55-60 minutes post DHPG application to the average of the last 5 minutes of baseline.
(§2) Input output function was examined by stimulating slices with incrementally increasing current (about 20, about 40, about 80, about 120, about 200, about 300 μA) and recording the fEPSP response. Paired pulse facilitation was induced by applying two pulses at different interstimulus intervals (about 10, about 20, about 50, about 100, about 200, about 300, about 500 ms). Facilitation was measured by the ratio of the fEPSP slope of stimulus 2 to stimulus 1. NMDAR-dependent LTD was induced by delivering 900 test pulses at 1 Hz. mGluR-LTD was induced by applying R, S-Dihydroxyphenylglycine (R,S-DHPG, 50 μM) or S-Dihydroxyphenylglycine (S-DHPG, 25 μM) for about 5 minutes, the effects of which were followed for 60 minutes following treatment. In some experiments slices were incubated with the protein synthesis inhibitor cycloheximide (60 μM) for 30 minutes as follows: about 20 minutes during baseline recording, about 5 minutes during DHPG application and about 5 minutes post DHPG application.
For mGluR PAM experiments, slices were pretreated with CDPPB (10 μM) or DMSO control for about 30 minutes in same manner as above, either in the presence of cycloheximide or control ACSF. For rapamycin experiments, slices were pretreated with rapamycin (20 nM) or DMSO control, with or without cycloheximide, for at least 30 minutes prior to DHPG application and throughout the entire experiment.

[2] = system: area CA1 of hippocampal slices; assay: Paired pulse facilitation (presynaptic LTD) in acute hippocampal slices; design: species or system mice; conditions: for PPF (ratio of fEPSP slope of stimulus 2 to stimulus 1): 50 ms inter-stimulus interval, 60 minutes post DHPG (FIG. 3D)
Experimental: as §1, §2

[3] = system: wildtype and Tsc2^+/− mice; assay: Context fear-conditioning (context discrimination); type: in vivo; conditions: for effect on context discrimination (in words): 10 mg/kg i.p. 30 minutes prior to training; for percentage of time spent freezing: single injection 10 mg/kg i.p. 30 minutes prior to training, tested 24 hours later
Experimental: Context fear-conditioning experiments were employed to assess improvements in cognitive processing following administration of a composition that activates Group I mGluR signaling, such as by administration of mGluR5PAMs. Context fear-conditioning was performed using a modification of a previously described procedure (Ehninger, D., et al., Nat Med 14, 843-8 (2008). Wildtype and Tsc2^+/− mice (8-12 weeks old) are habituated to the testing room and experimenter for 3 days prior to training On the day of training, mice is placed in the training context and delivered one 0.80 mA shocks (2 sec). The mice were allowed about 3 minutes to explore context before conditioning and were removed about 15 sec after the shock was given and returned to home cage. Conditioned fear response was assessed 24 hours later by a trained observer measuring the percentage of time spent freezing during the test period (about 3 min session). To determine context specificity of the conditioned response, mice trained at the same time were separated into two groups: one group was tested in the same training context and the other tested in a novel context. This novel context was created by varying: distal cues, odor, floor material, and lighting of the testing apparatus. For rescue experiments, animals received a single injection of CDPPB (10 mg/kg, i.p.) about 30 minutes prior to training session.
Cognitive impairments in the Tsc2^+/− mice were improved by treating the animals with the mTORC1 inhibitor rapamycin (Ehninger, D., et al., Nat. Med. 14: 843-848 (2008)). A robust phenotype was reported to be an impairment in the ability of the Tsc2^+/− mice to distinguish between familiar and novel contexts in a fear conditioning paradigm. The advantage of this paradigm is the learning occurs in one trial, making it amenable to acute drug treatment, and the memory is hippocampus-dependent. The mice are first exposed to a distinctive context in which they receive an aversive foot shock. The next day, context discrimination is tested by dividing the animals into two groups, one placed in the familiar context associated with the shock, and the other placed in a novel context (FIG. 6A). Context discrimination is assessed by measuring the time the animals express fear by freezing in each context.

## N[C@@H](C(=O)O)c1cc(O)cc(O)c1 (racemic) [DHPG, (R,S)-3,5-dihydroxyphenylglycine]
[1]; slices from Tsc2^+/− mice, DHPG alone, 5 min, 55-60 min post DHPG (FIG. 3B)
  DHPG induced LTD (fEPSP slope normalized to baseline): 85.2±2.7%
[1]; slices from WT mice, DHPG alone, 5 min, 55-60 min post DHPG (FIG. 3B)
  DHPG induced LTD (fEPSP slope normalized to baseline): 74.1±2.0%
[2]; Tsc2^+/− slices
  PPF (ratio of fEPSP slope of stimulus 2 to stimulus 1): 1.63±0.02
[2]; WT slices
  PPF (ratio of fEPSP slope of stimulus 2 to stimulus 1): 1.59±0.04

## N#Cc1cccc(C(=O)Nc2cc(-c3ccccc3)nn2-c2ccccc2)c1 [CDPPB, 3-cyano-N-(1,3-diphenyl-1H-pyrazol-5-yl)benzamide]
[1]; slices from Tsc2^+/− mice
  effect on DHPG induced LTD (in words): restored the magnitude of mGluR-LTD in Tsc2^+/− mice to WT levels
[1]; slices from Tsc2^+/− mice, CDPPB 10 μM co-applied with cycloheximide (FIG. 5E)
  DHPG induced LTD (fEPSP slope normalized to baseline): 84.8±1.8%
[1]; slices from Tsc2^+/− mice, pretreatment with CDPPB 10 μM (FIG. 5D)
  DHPG induced LTD (fEPSP slope normalized to baseline): 72.7±4.4%
[1]; slices from Tsc2^+/− mice, with cycloheximide
  effect on DHPG induced LTD in the presence of cycloheximide (in words): completely eliminated by cycloheximide
[3]; Tsc2^+/− mice
  effect on context discrimination (in words): sufficient to correct the deficit in context discrimination
[3]; Tsc2^+/− mice, familiar context
  percentage of time spent freezing: 44.5±4.3%
[3]; Tsc2^+/− mice, novel context
  percentage of time spent freezing: 31.6±3%
[3]; WT mice
  effect on context discrimination (in words): no effect
[3]; WT mice, familiar context
  percentage of time spent freezing: 42.3±3.7%
[3]; WT mice, novel context
  percentage of time spent freezing: 26.4±3.6%

## C[C@@H]1C[C@@H]([C@H](O)CC2CC(=O)NC(=O)C2)C(=O)[C@@H](C)C1 [CHX, cycloheximide]
[1]; slices from Tsc2^+/− mice
  effect on DHPG induced LTD (in words): no effect on LTD
[1]; slices from Tsc2^+/− mice, cycloheximide 60 μM (FIG. 3C)
  DHPG induced LTD (fEPSP slope normalized to baseline): 83.5±2.1%
[1]; slices from WT mice
  effect on DHPG induced LTD (in words): reliably reduced
[1]; slices from WT mice, pretreatment with cycloheximide 60 μM (FIG. 3A)
  DHPG induced LTD (fEPSP slope normalized to baseline): 85.6±3.4%
[2]; Tsc2^+/− slices, DHPG+CHX
  PPF (ratio of fEPSP slope of stimulus 2 to stimulus 1): 1.62±0.04
[2]; WT slices, DHPG+CHX
  PPF (ratio of fEPSP slope of stimulus 2 to stimulus 1): 1.58±0.05
[2]; WT slices, cycloheximide 60 μM (FIG. 3D)
  effect on changes in PPF following DHPG (in words): not inhibited

## CO[C@H]1C[C@@H]2CC[C@@H](C)[C@@](O)(O2)C(=O)C(=O)N2CCCC[C@H]2C(=O)O[C@H]([C@H](C)C[C@@H]2CC[C@@H](O)[C@H](OC)C2)CC(=O)[C@H](C)/C=C(\C)[C@@H](O)[C@@H](OC)C(=O)[C@H](C)C[C@H](C)/C=C/C=C/C=C/1C [RAP, rapamycin]
[1]; slices from Tsc2^+/− mice, pretreatment with rapamycin 20 nM (FIG. 5B)
  DHPG induced LTD (fEPSP slope normalized to baseline): 75.3±3%
[1]; slices from Tsc2^+/− mice, rapamycin 20 nM with cycloheximide (FIG. 5C)
  DHPG induced LTD (fEPSP slope normalized to baseline): 89.3±2.4%
[1]; slices from WT mice
  effect on DHPG induced LTD (in words): no effect
[1]; slices from wildtype animals, pretreatment with rapamycin 20 nM (FIG. 5A)
  DHPG induced LTD (fEPSP slope normalized to baseline): 73.0%
